# Measurements: patent US20190290631A1, “PHARMACEUTICAL COMPOSITION COMPRISING RAPAMYCIN OR DERIVATIVE THEREOF” (NIPPON KAYAKU KABUSHIKI KAISHA, priority 2016, published 2019)
# Experiment: Purity of everolimus in ethanol solution
# Format: physicochemical
# Details: dissolved in ethanol, 3 hours/25° C.
# Experimental: However, since an aqueous solution of a coating agent needs to be used in order to prepare such a film-coated tablet, the aforementioned method cannot be applied to drugs having low chemical stability against aqueous solvents. […] For example, everolimus as a rapamycin derivative has physical properties, by which when it is dissolved in ethanol to prepare an ethanol solution thereof, its purity is decreased by 4% or more under conditions of 3 hours/25° C. As such, it is not preferable that a film coating technique involving the use of an aqueous solvent be applied, as a pharmaceutical formulation of light-resistant preparations, to a pharmaceutical product tablet comprising, as an active ingredient, rapamycin and a derivative thereof.
structure (smiles),measurement,value
"CO[C@H]1C[C@@H]2CC[C@@H](C)[C@@](O)(O2)C(=O)C(=O)N2CCCC[C@H]2C(=O)O[C@H]([C@H](C)C[C@@H]2CC[C@@H](OCCO)[C@H](OC)C2)CC(=O)[C@H](C)/C=C(\C)[C@@H](O)[C@@H](OC)C(=O)[C@H](C)C[C@H](C)/C=C/C=C/C=C/1C [everolimus, 40-O-(2-hydroxyethyl)rapamycin]",decrease in purity in ethanol solution,≥ 4%
